From ChEMBL document CHEMBL3885881, “DrugMatrix”

Organism: Rattus norvegicus
Experiment: DrugMatrix - Regimen: Daily Repeat
Type: toxicity, organism-based, Sprague-Dawley
Parameters: regimen Daily Repeat, gender Male, age 6-8 weeks
Conditions: in vivo, po, route oral GAVAGE, vehicle 100 % WATER; for ABSOLUTE BASOPHIL / ABSOLUTE EOSINOPHIL / ABSOLUTE LYMPHOCYTE / ABSOLUTE MONOCYTE / ABSOLUTE SEGMENTED NEUTROPHIL / BASOPHIL / EOSINOPHIL / ERYTHROCYTE COUNT / HEMATOCRIT / HEMOGLOBIN / LEUKOCYTE COUNT / LYMPHOCYTE / MEAN CORPUSCULAR HEMOGLOBIN / MEAN CORPUSCULAR HEMOGLOBIN CONCENTRATION / MEAN CORPUSCULAR VOLUME / MONOCYTE / NEUTROPHIL / NUCLEATED RED BLOOD CELLS / PLATELET COUNT: tissue Blood; for ALANINE AMINOTRANSFERASE / ALBUMIN / ALKALINE PHOSPHATASE / ASPARTATE AMINOTRANSFERASE / BLOOD UREA NITROGEN / CARBON DIOXIDE / CHLORIDE / CHOLESTEROL / CREATINE PHOSPHOKINASE / CREATININE / GLUCOSE / LACTATE DEHYDROGENASE / LIPASE / PHOSPHORUS / POTASSIUM / SODIUM / TOTAL BILIRUBIN / TOTAL PROTEIN / URIC ACID: tissue Plasma
[1] = 11 mg/kg, 120 h, dose level Low, time 5 day
[2] = 40 mg/kg, 72 h, dose level High, time 3 day
[3] = 40 mg/kg, 120 h, dose level High, time 5 day

## CN(C)C(=O)Oc1cccc([N+](C)(C)C)c1.[Br-] [NEOSTIGMINE BROMIDE]
[1]
  ABSOLUTE BASOPHIL: 0 CELLS/uL
  ABSOLUTE EOSINOPHIL: 28.67 CELLS/uL
  ABSOLUTE LYMPHOCYTE: 4930.67 CELLS/uL
  ABSOLUTE MONOCYTE: 109.33 CELLS/uL
  ABSOLUTE SEGMENTED NEUTROPHIL: 798 CELLS/uL
  BASOPHIL: 0%
  EOSINOPHIL: 0.33%
  ERYTHROCYTE COUNT: 5.49 x10E6/uL
  HEMATOCRIT: 34.3%
  HEMOGLOBIN: 13.23 G/DL
  LEUKOCYTE COUNT: 5.87 x10E3/uL
  LYMPHOCYTE: 83%
  MEAN CORPUSCULAR HEMOGLOBIN: 24.1 pg
  MEAN CORPUSCULAR HEMOGLOBIN CONCENTRATION: 38.57 G/DL
  MEAN CORPUSCULAR VOLUME: 62.5 fL
  MONOCYTE: 1.67%
  NEUTROPHIL: 15%
  NUCLEATED RED BLOOD CELLS: 0 /100WBC
  PLATELET COUNT: 970 x10E3/uL
  ALANINE AMINOTRANSFERASE: 54 u/L
  ALBUMIN: 4 G/DL
  ALKALINE PHOSPHATASE: 382.33 u/L
  ASPARTATE AMINOTRANSFERASE: 83 u/L
  BLOOD UREA NITROGEN: 14 mg/dL
  CARBON DIOXIDE: 32.33 mmol/L
  CHLORIDE: 99.33 MEQ/L
  CHOLESTEROL: 67.33 mg/dL
  CREATINE PHOSPHOKINASE: 225.33 u/L
  CREATININE: 0.14 mg/dL
  GLUCOSE: 155.33 mg/dL
  LACTATE DEHYDROGENASE: 116 u/L
  LIPASE: 9.33 u/L
  PHOSPHORUS: 11.53 mg/dL
  POTASSIUM: 5.88 MEQ/L
  SODIUM: 144.8 MEQ/L
  TOTAL BILIRUBIN: 0.17 mg/dL
  TOTAL PROTEIN: 5.8 G/DL
  URIC ACID: 0.8 mg/dL
[2]
  ABSOLUTE BASOPHIL: 0 CELLS/uL
  ABSOLUTE EOSINOPHIL: 29.33 CELLS/uL
  ABSOLUTE LYMPHOCYTE: 8073 CELLS/uL
  ABSOLUTE MONOCYTE: 28.67 CELLS/uL
  ABSOLUTE SEGMENTED NEUTROPHIL: 702.33 CELLS/uL
  BASOPHIL: 0%
  EOSINOPHIL: 0.33%
  ERYTHROCYTE COUNT: 5.28 x10E6/uL
  HEMATOCRIT: 32.2%
  HEMOGLOBIN: 12.53 G/DL
  LEUKOCYTE COUNT: 8.83 x10E3/uL
  LYMPHOCYTE: 91.33%
  MEAN CORPUSCULAR HEMOGLOBIN: 23.7 pg
  MEAN CORPUSCULAR HEMOGLOBIN CONCENTRATION: 38.93 G/DL
  MEAN CORPUSCULAR VOLUME: 60.93 fL
  MONOCYTE: 0.33%
  NEUTROPHIL: 8%
  NUCLEATED RED BLOOD CELLS: 0 /100WBC
  PLATELET COUNT: 857.33 x10E3/uL
  ALANINE AMINOTRANSFERASE: 53.67 u/L
  ALBUMIN: 3.97 G/DL
  ALKALINE PHOSPHATASE: 316.33 u/L
  ASPARTATE AMINOTRANSFERASE: 90.33 u/L
  BLOOD UREA NITROGEN: 13.33 mg/dL
  CARBON DIOXIDE: 31.67 mmol/L
  CHLORIDE: 100.67 MEQ/L
  CHOLESTEROL: 85 mg/dL
  CREATINE PHOSPHOKINASE: 289 u/L
  CREATININE: 0.15 mg/dL
  GLUCOSE: 135.33 mg/dL
  LACTATE DEHYDROGENASE: 137.33 u/L
  LIPASE: 9 u/L
  PHOSPHORUS: 11.43 mg/dL
  POTASSIUM: 6.3 MEQ/L
  SODIUM: 143.1 MEQ/L
  TOTAL BILIRUBIN: 0.2 mg/dL
  TOTAL PROTEIN: 6.03 G/DL
  URIC ACID: 0.83 mg/dL
[3]
  ABSOLUTE BASOPHIL: 0 CELLS/uL
  ABSOLUTE EOSINOPHIL: 26.33 CELLS/uL
  ABSOLUTE LYMPHOCYTE: 8117.33 CELLS/uL
  ABSOLUTE MONOCYTE: 169.67 CELLS/uL
  ABSOLUTE SEGMENTED NEUTROPHIL: 1053.33 CELLS/uL
  BASOPHIL: 0%
  EOSINOPHIL: 0.33%
  ERYTHROCYTE COUNT: 5.39 x10E6/uL
  HEMATOCRIT: 33.9%
  HEMOGLOBIN: 13 G/DL
  LEUKOCYTE COUNT: 9.37 x10E3/uL
  LYMPHOCYTE: 87%
  MEAN CORPUSCULAR HEMOGLOBIN: 24.13 pg
  MEAN CORPUSCULAR HEMOGLOBIN CONCENTRATION: 38.37 G/DL
  MEAN CORPUSCULAR VOLUME: 62.93 fL
  MONOCYTE: 1.67%
  NEUTROPHIL: 11%
  NUCLEATED RED BLOOD CELLS: 0.33 /100WBC
  PLATELET COUNT: 1139.67 x10E3/uL
  ALANINE AMINOTRANSFERASE: 52.33 u/L
  ALBUMIN: 3.97 G/DL
  ALKALINE PHOSPHATASE: 386 u/L
  ASPARTATE AMINOTRANSFERASE: 89.67 u/L
  BLOOD UREA NITROGEN: 15.33 mg/dL
  CARBON DIOXIDE: 32.33 mmol/L
  CHLORIDE: 102.33 MEQ/L
  CHOLESTEROL: 79.33 mg/dL
  CREATINE PHOSPHOKINASE: 258 u/L
  CREATININE: 0.16 mg/dL
  GLUCOSE: 148.67 mg/dL
  LACTATE DEHYDROGENASE: 117.33 u/L
  LIPASE: 9.33 u/L
  PHOSPHORUS: 11.17 mg/dL
  POTASSIUM: 6.13 MEQ/L
  SODIUM: 148.3 MEQ/L
  TOTAL BILIRUBIN: 0.2 mg/dL
  TOTAL PROTEIN: 5.87 G/DL
  URIC ACID: 0.43 mg/dL
